In BindingDB's records for PubMed 10991999 (Cocensys, 2000):

Key:
[1] = molecular target: Gamma-aminobutyric acid receptor subunit alpha-4 (Rattus norvegicus, UniProt P28471)
[2] = molecular target: Gamma-aminobutyric acid receptor subunit alpha-1 (Rattus norvegicus, UniProt P62813)
[3] = molecular target: Gamma-aminobutyric acid receptor subunit alpha-2 (Rattus norvegicus, UniProt P23576)
[4] = molecular target: Gamma-aminobutyric acid receptor subunit alpha-3 (Rattus norvegicus, UniProt P20236)
[5] = molecular target: Gamma-aminobutyric acid receptor subunit alpha-5 (Rattus norvegicus, UniProt P19969)
[6] = molecular target: Gamma-aminobutyric acid receptor subunit alpha-6 (Rattus norvegicus, UniProt P30191)
Chain of Gamma-aminobutyric acid receptor subunit alpha-6 (P30191 whole entry): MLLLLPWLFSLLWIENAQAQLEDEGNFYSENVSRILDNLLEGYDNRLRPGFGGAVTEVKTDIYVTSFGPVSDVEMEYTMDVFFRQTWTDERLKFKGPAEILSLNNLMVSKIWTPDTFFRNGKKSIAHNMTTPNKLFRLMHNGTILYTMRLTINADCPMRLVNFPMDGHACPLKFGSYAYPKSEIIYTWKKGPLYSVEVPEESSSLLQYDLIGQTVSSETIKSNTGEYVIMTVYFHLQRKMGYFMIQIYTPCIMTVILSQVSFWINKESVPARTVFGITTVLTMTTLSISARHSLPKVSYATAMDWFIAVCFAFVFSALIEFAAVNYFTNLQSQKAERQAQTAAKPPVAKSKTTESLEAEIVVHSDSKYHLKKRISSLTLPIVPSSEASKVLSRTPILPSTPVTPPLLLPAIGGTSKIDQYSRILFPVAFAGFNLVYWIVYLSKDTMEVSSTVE

Chain of Gamma-aminobutyric acid receptor subunit alpha-5 (P19969 whole entry): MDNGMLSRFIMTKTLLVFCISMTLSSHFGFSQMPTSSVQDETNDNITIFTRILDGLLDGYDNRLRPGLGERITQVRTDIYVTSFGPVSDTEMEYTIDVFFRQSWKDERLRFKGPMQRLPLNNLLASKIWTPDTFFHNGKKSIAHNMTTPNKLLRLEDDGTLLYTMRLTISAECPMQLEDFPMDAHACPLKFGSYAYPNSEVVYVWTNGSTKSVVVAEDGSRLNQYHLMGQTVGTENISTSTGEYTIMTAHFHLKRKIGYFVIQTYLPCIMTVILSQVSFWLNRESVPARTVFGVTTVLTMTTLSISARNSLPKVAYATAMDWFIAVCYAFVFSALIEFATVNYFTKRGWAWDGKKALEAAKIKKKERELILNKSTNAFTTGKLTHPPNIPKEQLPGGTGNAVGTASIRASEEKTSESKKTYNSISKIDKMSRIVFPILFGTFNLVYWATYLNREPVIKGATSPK
Chain of Gamma-aminobutyric acid receptor subunit alpha-4 (P28471 whole entry): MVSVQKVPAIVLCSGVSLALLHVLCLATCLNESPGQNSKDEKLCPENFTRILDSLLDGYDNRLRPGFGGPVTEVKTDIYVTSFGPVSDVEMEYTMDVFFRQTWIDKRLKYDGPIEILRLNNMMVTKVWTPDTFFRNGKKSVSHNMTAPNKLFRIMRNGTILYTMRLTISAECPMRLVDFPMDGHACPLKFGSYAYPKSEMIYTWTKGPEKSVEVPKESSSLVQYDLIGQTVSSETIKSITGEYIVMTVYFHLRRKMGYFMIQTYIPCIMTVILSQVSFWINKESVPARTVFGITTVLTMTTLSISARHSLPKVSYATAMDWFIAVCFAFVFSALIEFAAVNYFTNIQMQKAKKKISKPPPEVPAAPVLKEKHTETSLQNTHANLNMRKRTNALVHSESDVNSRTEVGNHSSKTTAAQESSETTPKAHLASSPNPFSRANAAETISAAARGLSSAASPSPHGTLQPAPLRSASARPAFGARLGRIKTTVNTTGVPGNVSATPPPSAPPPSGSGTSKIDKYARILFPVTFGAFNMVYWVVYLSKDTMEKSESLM
Chain of Gamma-aminobutyric acid receptor subunit alpha-1 (P62813 whole entry): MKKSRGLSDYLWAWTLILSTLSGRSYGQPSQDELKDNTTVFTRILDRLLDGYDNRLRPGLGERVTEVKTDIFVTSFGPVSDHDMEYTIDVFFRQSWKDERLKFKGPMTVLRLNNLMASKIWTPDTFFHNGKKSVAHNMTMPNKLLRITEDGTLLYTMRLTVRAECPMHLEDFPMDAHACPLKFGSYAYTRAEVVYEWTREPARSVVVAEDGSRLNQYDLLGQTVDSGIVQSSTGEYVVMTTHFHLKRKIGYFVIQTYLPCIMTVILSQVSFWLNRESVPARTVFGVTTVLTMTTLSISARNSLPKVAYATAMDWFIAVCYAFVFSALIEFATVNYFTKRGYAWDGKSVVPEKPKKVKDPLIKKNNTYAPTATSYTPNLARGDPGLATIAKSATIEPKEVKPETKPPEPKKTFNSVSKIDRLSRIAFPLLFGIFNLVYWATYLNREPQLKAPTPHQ
Chain of Gamma-aminobutyric acid receptor subunit alpha-3 (P20236 whole entry I342M/K409L): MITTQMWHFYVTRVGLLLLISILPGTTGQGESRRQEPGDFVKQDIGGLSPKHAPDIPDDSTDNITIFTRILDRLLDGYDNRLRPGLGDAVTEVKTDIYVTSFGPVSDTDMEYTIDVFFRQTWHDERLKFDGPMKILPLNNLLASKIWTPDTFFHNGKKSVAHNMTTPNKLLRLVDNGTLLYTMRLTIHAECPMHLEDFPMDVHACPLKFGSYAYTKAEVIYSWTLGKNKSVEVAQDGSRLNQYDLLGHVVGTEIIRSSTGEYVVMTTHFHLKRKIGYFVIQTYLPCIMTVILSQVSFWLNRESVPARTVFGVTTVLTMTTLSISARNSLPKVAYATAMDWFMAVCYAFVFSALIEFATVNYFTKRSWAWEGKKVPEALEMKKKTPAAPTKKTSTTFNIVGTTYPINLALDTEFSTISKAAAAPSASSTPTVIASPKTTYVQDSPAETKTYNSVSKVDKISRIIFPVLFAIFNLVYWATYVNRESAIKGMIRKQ
Chain of Gamma-aminobutyric acid receptor subunit alpha-2 (P23576 whole entry): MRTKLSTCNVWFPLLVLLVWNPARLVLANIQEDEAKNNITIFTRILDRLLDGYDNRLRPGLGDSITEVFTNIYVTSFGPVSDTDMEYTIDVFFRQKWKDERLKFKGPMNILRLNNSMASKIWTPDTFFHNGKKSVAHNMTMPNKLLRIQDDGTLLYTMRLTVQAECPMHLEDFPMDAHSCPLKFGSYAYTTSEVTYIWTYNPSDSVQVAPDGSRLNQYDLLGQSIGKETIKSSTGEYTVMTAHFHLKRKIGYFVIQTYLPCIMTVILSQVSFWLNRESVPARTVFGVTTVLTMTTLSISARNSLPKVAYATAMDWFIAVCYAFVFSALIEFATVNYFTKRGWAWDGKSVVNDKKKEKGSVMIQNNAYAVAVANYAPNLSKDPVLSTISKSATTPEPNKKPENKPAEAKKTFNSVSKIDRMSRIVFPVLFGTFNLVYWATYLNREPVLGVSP

| SMILES | Ki [1] [nM] | Ki [2] [nM] | Ki [3] [nM] | Ki [4] [nM] | Ki [5] [nM] | Ki [6] [nM] |
| --- | --- | --- | --- | --- | --- | --- |
| C[C@]12CC[C@H]3[C@@H](CC[C@@H]4C[C@@](O)(C(F)(F)F)CC[C@@H]43)[C@@H]1CC[C@@H]2C(=O)CO [GMA-839] | 2300 | 200 | 200 | 96 | 210 | 2000 |
| CC(=O)C1CCC2C3CC[C@H]4C[C@H](O)CC[C@]4(C)C3CC[C@]12C (stereo partly specified) [Allopregnanolone] | 1900 | 17.5 | 41 | 20 | 21 |  |
